Numbering of substitutions follows the chain as printed. pEC50: −log10 of the molar value. Where “and” joins values, the source holds several entries; their conditions need not be identical. Identical values can stand only once. Entries after “also recorded” stand apart in the source; their conditions may differ. Values belong to the compound of their own block, whether it stands above or below them.
Assays:
Assay type in all cases: cell-based
[1] = target: T1, OX2R N324A (Homo sapiens, UniProt O43614, N324A); assay: IP accumulation assay, OX2R N324A;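 as to % IP accumulation: 100% equals the maximal response of wild-type OX2R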
T1 construct: FLAG; expressed in transfected cells; host or cells: HEK293
T1 sequence (O43614 1-444 N324A): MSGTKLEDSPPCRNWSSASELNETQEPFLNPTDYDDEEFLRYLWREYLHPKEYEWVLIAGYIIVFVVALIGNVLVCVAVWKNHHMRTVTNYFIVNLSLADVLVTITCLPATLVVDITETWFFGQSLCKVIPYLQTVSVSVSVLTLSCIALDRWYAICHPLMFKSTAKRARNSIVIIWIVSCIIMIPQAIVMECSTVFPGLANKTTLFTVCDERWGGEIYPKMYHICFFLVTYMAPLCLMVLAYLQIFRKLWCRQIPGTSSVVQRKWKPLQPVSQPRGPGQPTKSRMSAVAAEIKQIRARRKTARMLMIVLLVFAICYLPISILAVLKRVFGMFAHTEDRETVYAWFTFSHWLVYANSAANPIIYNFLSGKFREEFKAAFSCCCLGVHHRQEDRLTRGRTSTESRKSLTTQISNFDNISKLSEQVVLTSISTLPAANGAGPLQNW
Text: (§1) The IP assay was adapted from a prior precedent. HEK293 cells were maintained in DMEM-high glucose (Millipore Sigma) supplemented with 5% fetal bovine serum (Corning) and penicillin-streptomycin (Millipore Sigma). Receptor constructs used were the full-length wild-type (or mutant) human OX1R and OX2R sequences cloned into pCDNA3. To enhance the Emax in the IP assay, a plasmid encoding full-length human Gαq subunit[66] was co-transfected into HEK293 cells with plasmids encoding orexin receptor constructs using Lipofectamine 3000 (Thermo Fisher). 24 h after transfection, the cells were plated on poly-D-lysine coated (Millipore Sigma) tissue culture-treated 96 well white plates with clear bottoms (Perkin Elmer) at 30,000 cells per well in Inositol-free DMEM (MP Biomedicals) supplemented with 5% fetal bovine serum, 4 mM L-glutamine (Millipore Sigma), penicillin-streptomycin, and about 5 uCi (5 ul) per ml myo-[2-3H] inositol (Perkin Elmer). The following day, the media was replaced with agonists that were diluted in HBSS (Millipore Sigma) containing 10 mM lithium chloride (Millipore Sigma) and incubated at 37 °C for 45 min. Then agonists were removed and cells were lysed on ice for 30 min with 10 mM formic acid (Millipore Sigma). 1.25 mg of poly-lysine coated YSI SPA beads (Perkin Elmer) was added to each well. The plates were mixed on an orbital shaker for 30 min. The plates were read on a MicroBeta scintillation counter (Perkin Elmer) the following day. IP accumulation assays on different constructs were performed in n ≥ 3 independent experiments (each done in duplicate), where n is shown in Supplementary Table 2.

[2] = target: T2, OX2R1-406 (Homo sapiens, UniProt O43614); assay: IP accumulation assay, C-terminally truncated OX2R1-406; settings: for % IP accumulation: OX2R C25 short; for Emax: relative to OX2R WT with the same ligand;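 as to % IP accumulation: 100% is the full-length wild-type OX2R maximal IP response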
T2 construct: the receptor construct contained residues 1–406 of wild-type human OX2R; expressed in transfected cells; host or cells: HEK293
T2 sequence (O43614 1-406): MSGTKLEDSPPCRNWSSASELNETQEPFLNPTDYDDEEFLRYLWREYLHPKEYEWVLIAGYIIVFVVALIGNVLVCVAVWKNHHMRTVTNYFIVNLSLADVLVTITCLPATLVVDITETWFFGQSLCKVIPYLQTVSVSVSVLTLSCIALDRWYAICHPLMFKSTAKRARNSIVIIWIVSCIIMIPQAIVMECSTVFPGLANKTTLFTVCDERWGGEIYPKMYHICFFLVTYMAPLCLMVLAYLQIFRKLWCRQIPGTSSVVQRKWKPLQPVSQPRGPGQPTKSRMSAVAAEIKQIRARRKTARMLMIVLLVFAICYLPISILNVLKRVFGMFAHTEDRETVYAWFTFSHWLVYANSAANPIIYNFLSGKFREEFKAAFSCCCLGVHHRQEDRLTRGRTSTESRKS
Procedure: The cloning, expression, purification, cryo-EM data collection, and structure determination for the two OX2R-G protein complexes described in this paper were carried out independently. For the OX2R-mGsqiN complex the receptor construct contained residues 1–406 of wild-type human OX2R (OX2R^1–406). […] The resulting construct was cloned into a modified pFastBac (ThermoFisher) baculovirus expression vector with the HA signal sequence followed by a FLAG tag at the N-terminus. We were unable to isolate a stable complex between OX2R and full-length wild-type Gαq using the co-expression and purification strategy described below. Instead, an engineered Gαq construct called mGαsqiN was made by modifying the chimeric Gα protein ‘mini-Gs/q71’ previously described. Briefly, the linker […] was deleted and residues 1–27 at the N terminus was replaced by residues 1–30 of Gαi1. A second pFastBac baculovirus was made with this mini-GαqiN gene. An additional pFastBac-Dual baculovirus was made with human Gβ1 and human […] genes. An 8xHis tag was placed at the N-terminus of […]. […] After 48 h, cells were harvested and stored at −80 °C.
as §1

[3] = target: T3, human OX2R (Homo sapiens, UniProt O43614); assay: Inhibition of forskolin-stimulated cAMP production (Gi signaling), OX2R + Gαi1; settings: for stimulation of Gi1 as reduction in cAMP levels after forskolin treatment: HEK293 cells transfected with OX2R and Gαi1; for % Forskolin stimulation: OX2R + Gi
T3 construct: expressed in transfected cells; host or cells: HEK293
T3 sequence (O43614 1-444): T1 sequence (O43614 1-444 N324A) with A324N
Procedure: To measure Gi signaling[67], HEK293 cells were transfected with pGloSensor™−22F cAMP Plasmid (Promega) and CMV expression plasmid encoding human OX2R. To enhance the signal for the cAMP assay, we co-transfected a Gi expression plasmid (CMV-driven) in which the full-length human Gαi1 subunit sequence was cloned into pcDNA3. The following day, cells were harvested and washed with assay buffer, HBSS with 20 mM HEPES pH 7.4 (Millipore Sigma). Cells were suspended in assay buffer containing 0.5 mg/ml Luciferin (Gold Biotechnology) and plated on 96 well tissue culture-treated white plates with opaque bottoms (Thermo Fisher). The cells were incubated at 37 °C for 90 min. Forskolin (Millipore Sigma) diluted in assay buffer was added to wells for a final concentration of 5 mM. Luminescence was read at room temperature repeatedly in a CLARIOstar microplate reader (BMG Labtech) until the signal stopped increasing. Agonist diluted in assay buffer was added from a 7X stock and again the plates were read repeatedly until the signal was stable.

[4] = OXB conc (log, M) -6.95, listed as OXB
[5] = OXB conc (log, M) -7.43, listed as OXB
[6] = OXB conc (log, M) -7.91, listed as OXB
[7] = OXB conc (log, M) -8.39, listed as OXB
[8] = OXB conc (log, M) -9.82, listed as OXB
[9] = OXB conc (log, M) -10.29, listed as OXB

pEC50 ([1]; IP accumulation): 7.74
% IP accumulation ([1]; TAK-925 conc (log, M) -4.52): 38.90% and 50.17% and 61.68%
% IP accumulation ([1]; TAK-925 conc (log, M) -5.00): 44.83% and 48.29% and 62.09%
% IP accumulation ([1]; TAK-925 conc (log, M) -5.48): 54.68% and 49.83% and 60.54%
% IP accumulation ([1]; TAK-925 conc (log, M) -5.95): 62.62% and 51.37% and 66.38%
% IP accumulation ([1]; TAK-925 conc (log, M) -6.43): 60.89% and 49.04% and 58.43%
% IP accumulation ([1]; TAK-925 conc (log, M) -6.91): 55.51% and 43.02% and 53.52%
% IP accumulation ([1]; TAK-925 conc (log, M) -7.39): 29.79% and 34.77% and 41.19%
% IP accumulation ([1]; TAK-925 conc (log, M) -7.86): 20.98% and 26.21% and 25.22%
% IP accumulation ([1]; TAK-925 conc (log, M) -8.34): 10.23% and 11.60% and 16.93%
% IP accumulation ([1]; TAK-925 conc (log, M) -8.82): 0.00% and 5.30%
% IP accumulation ([1]; TAK-925 conc (log, M) -9.29): 0.24% and 0.00% and 4.28%
Emax ([1]; relative to OX2R WT/TAK-925): 55
pEC50 ([2]; IP accumulation): 8.27
Emax [2]: 100
% Forskolin stimulation ([3]; log [Agonist] -5.00): 72.69% and 86.21% and 88.94%
% Forskolin stimulation ([3]; log [Agonist] -5.52): 88.35% and 93.40% and 97.54%
% Forskolin stimulation ([3]; log [Agonist] -6.00): 94.60% and 96.68% and 103.97%
% Forskolin stimulation ([3]; log [Agonist] -6.52): 100.56% and 102.28% and 109.64%
% Forskolin stimulation ([3]; log [Agonist] -7.00): 100.76% and 107.19% and 105.95%
% Forskolin stimulation ([3]; log [Agonist] -7.52): 105.87% and 108.11% and 120.96%
% Forskolin stimulation ([3]; log [Agonist] -8.00): 107.95% and 108.44% and 107.03%
% Forskolin stimulation ([3]; log [Agonist] -8.52): 103.47% and 109.30% and 118.87%
Compound: COC(=O)N1CCC[C@H](NS(C)(=O)=O)[C@@H]1CO[C@H]1CC[C@@H](c2ccccc2)CC1 [TAK-925, methyl (2R,3S)−3-[(methylsulfonyl)amino]−2-{[(cis−4-phenylcyclohexyl)oxy]methyl}piperidine-1-carboxylate]
% IP accumulation ([2]; TAK-925 conc (log, M) -7.39): 102.09% and 80.64% and 87.71% and 69.65% and 70.45% and 93.38%
% IP accumulation ([2]; TAK-925 conc (log, M) -7.86): 87.29% and 59.28% and 70.66% and 54.93% and 62.49% and 77.19%
stimulation of Gi1 as reduction in cAMP levels after forskolin treatment [3]: poor ability to stimulate Gi1; also recorded: minimal diminution of cAMP signal

Compound: orexin B
activation of the mutant receptor ([1]; Gq signaling, IP accumulation): fails to activate
% IP accumulation [1, 4]: 32.75% and 37.01% and 40.09%
% IP accumulation [1, 5]: 25.51% and 22.88% and 29.36%
% IP accumulation [1, 6]: 19.13% and 21.90% and 18.40%
% IP accumulation [1, 7]: 9.56% and 13.73% and 13.07%
% IP accumulation ([1]; OXB conc (log, M) -8.86, listed as OXB): 3.38% and 9.31% and 7.17%
% IP accumulation ([1]; OXB conc (log, M) -9.34, listed as OXB): 7.35% and 10.16% and 5.28%
% IP accumulation [1, 8]: 3.06% and 4.95% and 0.00%
% IP accumulation [1, 9]: 0.00% and 2.10%
% IP accumulation [2, 4]: 116.05% and 97.72% and 102.67% and 64.00% and 80.15% and 76.35% and 110.96%
% IP accumulation [2, 5]: 91.34% and 86.13% and 87.29% and 57.27% and 82.96% and 71.01% and 111.84%
% IP accumulation [2, 6]: 79.86% and 83.63% and 74.72% and 64.39% and 71.59% and 62.47% and 94.62%
% IP accumulation [2, 7]: 46.18% and 59.23% and 44.98% and 53.61% and 63.91% and 47.69% and 72.05%
% IP accumulation [2, 8]: 4.24% and 6.17% and 0.00% and 5.40% and 1.80% and 6.02% and 6.79%
% IP accumulation [2, 9]: 0.00% and 3.23%
Emax [2]: 100
stimulation of Gi1 as reduction in cAMP levels after forskolin treatment [3]: poor ability to stimulate Gi1; also recorded: minimal diminution of cAMP signal
% Forskolin stimulation ([3]; log [Agonist] -5.00, listed as OXB): 62.35% and 75.49% and 85.20%
% Forskolin stimulation ([3]; log [Agonist] -5.52, listed as OXB): 65.51% and 74.64% and 79.34%
% Forskolin stimulation ([3]; log [Agonist] -6.00, listed as OXB): 67.69% and 72.61% and 81.55%
% Forskolin stimulation ([3]; log [Agonist] -6.52, listed as OXB): 83.40% and 83.94% and 91.79%
% Forskolin stimulation ([3]; log [Agonist] -7.00, listed as OXB): 104.15% and 101.20% and 102.30%
% Forskolin stimulation ([3]; log [Agonist] -7.52, listed as OXB): 105.47% and 101.46% and 103.50%
% Forskolin stimulation ([3]; log [Agonist] -8.00, listed as OXB): 105.90% and 100.54% and 102.29%
% Forskolin stimulation ([3]; log [Agonist] -8.52, listed as OXB): 101.42% and 105.57% and 98.48%
